What was measured:
[1] = DRUGMATRIX: GABAA, Flunitrazepam, Central radioligand binding (ligand: [3H] Flunitrazepam); format: cell membranes, Rattus norvegicus, Wistar, Brain, Membrane; details: Not Active = under 50% inhibition at 10 µM
[2] = target: T1, Vasoactive intestinal polypeptide receptor 1 (Homo sapiens, UniProt P32241); format: cell membranes, Membrane; details: ht-29; also: in other assays of this panel Not Active means under 50% inhibition at 10 µM
T1 sequence (P32241 whole entry): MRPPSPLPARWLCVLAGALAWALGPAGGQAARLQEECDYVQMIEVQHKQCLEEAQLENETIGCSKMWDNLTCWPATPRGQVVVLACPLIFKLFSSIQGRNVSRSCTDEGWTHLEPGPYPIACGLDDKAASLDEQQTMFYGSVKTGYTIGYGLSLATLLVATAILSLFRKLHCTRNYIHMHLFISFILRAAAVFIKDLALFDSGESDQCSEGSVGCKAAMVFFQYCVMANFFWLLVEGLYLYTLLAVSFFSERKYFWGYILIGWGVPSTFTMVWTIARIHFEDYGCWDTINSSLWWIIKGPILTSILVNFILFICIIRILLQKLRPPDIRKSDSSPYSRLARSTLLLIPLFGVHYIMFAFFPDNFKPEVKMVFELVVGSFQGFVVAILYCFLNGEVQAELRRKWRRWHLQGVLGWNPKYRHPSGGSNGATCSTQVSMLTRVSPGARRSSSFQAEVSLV

[3] = target: T2, C-C chemokine receptor type 4 (Homo sapiens, UniProt P51679); format: cell membranes, Membrane; details: chem-1; also: in other assays of this panel Not Active means under 50% inhibition at 10 µM
T2 sequence (P51679 whole entry): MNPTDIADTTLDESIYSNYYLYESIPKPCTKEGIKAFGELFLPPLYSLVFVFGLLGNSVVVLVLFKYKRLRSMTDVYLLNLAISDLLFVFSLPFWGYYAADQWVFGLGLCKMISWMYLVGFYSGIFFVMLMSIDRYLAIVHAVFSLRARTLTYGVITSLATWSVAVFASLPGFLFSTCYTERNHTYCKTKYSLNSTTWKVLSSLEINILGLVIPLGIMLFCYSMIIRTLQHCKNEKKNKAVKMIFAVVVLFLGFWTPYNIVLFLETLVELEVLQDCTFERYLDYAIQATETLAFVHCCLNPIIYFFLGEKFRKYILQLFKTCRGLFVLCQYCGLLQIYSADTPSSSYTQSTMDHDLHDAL

[4] = DRUGMATRIX: Nicotinic Acetylcholine radioligand binding (ligand: [125I] Epibatidine); format: cell membranes, Membrane; details: imr-32; Not Active = under 50% inhibition at 10 µM
[5] = DRUGMATRIX: Phosphodiesterase PDE4 enzyme inhibition (substrate: [3H]cAMP + cAMP); details: u-937; Not Active = under 50% inhibition at 10 µM
[6] = target: Kappa-type opioid receptor (Homo sapiens, UniProt P41145); test: DRUGMATRIX: Opiate kappa (OP2, KOP) radioligand binding (ligand: [3H] Diprenorphine); format: cell membranes, HEK293, Membrane; details: Not Active = under 50% inhibition at 10 µM
[7] = DRUGMATRIX: Glutamate, Kainate radioligand binding (ligand: [3H] Kainic acid); format: cell membranes, Rattus norvegicus, Wistar, Brain, Membrane; details: Not Active = under 50% inhibition at 10 µM
[8] = DRUGMATRIX: GABAA, Chloride Channel, TBOB radioligand binding (ligand: [3H] TBOB); format: cell membranes, Rattus norvegicus, Wistar, Cerebral cortex, Membrane; details: Not Active = under 50% inhibition at 10 µM

Kappa-type opioid receptor, sequence (P41145 whole entry): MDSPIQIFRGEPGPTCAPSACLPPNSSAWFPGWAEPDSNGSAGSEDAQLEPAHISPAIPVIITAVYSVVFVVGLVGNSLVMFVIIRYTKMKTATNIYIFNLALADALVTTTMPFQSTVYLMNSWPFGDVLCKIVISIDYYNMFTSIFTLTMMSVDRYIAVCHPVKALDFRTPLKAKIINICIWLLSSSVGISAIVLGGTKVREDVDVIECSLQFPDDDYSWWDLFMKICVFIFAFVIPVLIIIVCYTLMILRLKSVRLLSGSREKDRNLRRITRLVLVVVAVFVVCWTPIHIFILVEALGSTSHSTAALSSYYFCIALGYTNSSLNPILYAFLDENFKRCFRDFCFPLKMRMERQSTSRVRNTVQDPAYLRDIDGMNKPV

For `COc1cc(N)nc2[nH]c(-c3ccc(F)cc3)c(-c3ccncc3)c12`, the IC50 [1] was “Not Active”, the Ki [1] was “Not Active” and the IC50 [2] was “Not Active”. The IC50 [3] was “Not Active”, the IC50 [4] was “Not Active” and the Ki [4] was “Not Active”. The IC50 [5] was “Not Active”, the Ki [5] was “Not Active” and the IC50 ([6]; hek293) was “Not Active”. For the same compound, the IC50 [7] was “Not Active”, the Ki [7] was “Not Active” and the IC50 [8] was “Not Active”. The Ki [8] was “Not Active”.

In the case of `CNS(=O)(=O)Cc1ccc2[nH]cc(CCN(C)C)c2c1`, the IC50 [1] is reported as “Not Active”, the Ki [1] is reported as “Not Active” and the IC50 [2] is reported as “Not Active”. For the same compound, the IC50 [3] was “Not Active”, the IC50 [4] was “Not Active” and the Ki [4] was “Not Active”. For the same compound, the IC50 [5] was “Not Active”, the Ki [5] was “Not Active” and the IC50 ([6]; hek293) was “Not Active”. The IC50 [7] was “Not Active”, the Ki [7] was “Not Active” and the IC50 [8] was “Not Active”. The Ki [8] was “Not Active”.

With `CCCc1nn(C)c2c(=O)[nH]c(-c3cc(S(=O)(=O)N4CCN(C)CC4)ccc3OCC)nc12` the IC50 [1] was “Not Active”, the Ki [1] was “Not Active” and the IC50 [2] was “Not Active”. For the same compound, the IC50 [3] was “Not Active”, the IC50 [4] was “Not Active” and the Ki [4] was “Not Active”. For the same compound, the IC50 [5] was “Not Active”, the Ki [5] was “Not Active” and the IC50 ([6]; hek293) was “Not Active”. The IC50 [7] was “Not Active”, the Ki [7] was “Not Active” and the IC50 [8] was “Not Active”. The Ki [8] was “Not Active”.

For `COc1ccc(/C=C/C(=O)Nc2ccccc2C(=O)O)cc1OC`, the IC50 [1] was “Not Active”, the Ki [1] was “Not Active” and the IC50 [2] was “Not Active”. For the same compound, the IC50 [3] was “Not Active”, the IC50 [4] was “Not Active” and the Ki [4] was “Not Active”. For the same compound, the IC50 [5] was “Not Active”, the Ki [5] was “Not Active” and the IC50 ([6]; hek293) was “Not Active”. The IC50 [7] was “Not Active”, the Ki [7] was “Not Active” and the IC50 [8] was “Not Active”. The Ki [8] was “Not Active”.

With `CCOC(N)=O` the IC50 [1] was “Not Active”, the Ki [1] was “Not Active” and the IC50 [2] was “Not Active”. The IC50 [3] was “Not Active”, the IC50 [4] was “Not Active” and the Ki [4] was “Not Active”. The IC50 [5] was “Not Active”, the Ki [5] was “Not Active” and the IC50 ([6]; hek293) was “Not Active”. The IC50 [7] was “Not Active”, the Ki [7] was “Not Active” and the IC50 [8] was “Not Active”. For the same compound, the Ki [8] was “Not Active”.

In the case of `CC(=O)Nc1nnc(S(N)(=O)=O)s1` [ACETAZOLAMIDE], the IC50 [2] is reported as “Not Active”, the IC50 [3] is reported as “Not Active” and the IC50 ([6]; hek293) is reported as “Not Active”.

In the case of `O=c1[nH]c2ccccc2n1CCCN1CCC(n2c(=O)[nH]c3cc(Cl)ccc32)CC1` [DOMPERIDONE], the IC50 [2] is reported as “Not Active” and the IC50 [3] is reported as “Not Active”.

In the case of `CC1=C(CC(=O)O)c2cc(F)ccc2/C1=C\c1ccc(S(C)(=O)=O)cc1` [EXISULIND], the IC50 [1] is reported as “Not Active”, the Ki [1] is reported as “Not Active” and the IC50 [2] is reported as “Not Active”. The IC50 [3] was “Not Active”, the IC50 [4] was “Not Active” and the Ki [4] was “Not Active”. For the same compound, the IC50 [5] was “Not Active”, the Ki [5] was “Not Active” and the IC50 ([6]; hek293) was “Not Active”. The IC50 [7] was “Not Active”, the Ki [7] was “Not Active” and the IC50 [8] was “Not Active”. For the same compound, the Ki [8] was “Not Active”.

For `CC(C)OC(=O)C(C)(C)Oc1ccc(C(=O)c2ccc(Cl)cc2)cc1` [FENOFIBRATE], the IC50 [2] was “Not Active”, the IC50 [3] was “Not Active” and the IC50 ([6]; hek293) was “Not Active”.

In the case of `OCCN1CCN(CCCN2c3ccccc3Sc3ccc(C(F)(F)F)cc32)CC1` [FLUPHENAZINE], the IC50 [2] is reported as “Not Active”, the IC50 [3] is reported as “Not Active” and the Ki [6] is reported as 9.89 µM. It also gave an IC50 ([6]; read-out: IC50) of 24.7 µM.

For `CN1C2CCCC1CC(NC(=O)c1nn(C)c3ccccc13)C2` (stereo not drawn) [GRANISETRON], the IC50 [2] was “Not Active”, the IC50 [3] was “Not Active” and the IC50 ([6]; hek293) was “Not Active”.
